Results as given in patent publication US11331289B2, “Antimicrobial composition” (priority 2017, dated 2022).
Where two headings read alike, the source gives them in different places.

Assays:
[1] = test system: Staphylococcus aureus no 16302 and no 16315; experiment: MIC of Oxyclozanide, broth microdilution method; assay type: cell-based
Method: (§1) In this study, 2 Staphylococcus aureus and 2 Staphylococcus pseudintermedius were tested. These strains were chosen after determination of the Minimum Inhibitory Concentration (MIC) of Oxyclozanide using broth microdilution method.

[2] = test system: Staphylococcus pseudintermedius no 15401 and no 15410; experiment: MIC of Oxyclozanide, broth microdilution method; assay type: cell-based
Method: as §1

MRSA 16110 = experiment: Time-killing curve, inoculum 10^6 CFU/ml (MIC 1 μg/ml); assay type: cell-based, Staphylococcus aureus
Method: (§2) The objective of this study is to assess in vitro the time-killing curves of oxyclozanide against four strains of Methicillin-Resistant Staphylococcus from dogs.
(§3) Two Methicillin-Resistant Staphylococcus aureus (MRSA) and two Methicillin-Resistant Staphylococcus pseudintermedius (MRSP) isolated from the clinics have been tested.
(§4) The assessment of time-killing curves has been realized by a broth macrodilution method (Mueller-Hinton II Broth).
(§5) Oxyclozanide is diluted in (DMSO) into sterile tubes in order to obtain the following concentrations from 800 to 6.25 μg/ml. Those concentrations and stock standard solution are then diluted (1/10) in Mueller-Hinton II Broth in order to obtain the following concentrations from […] (See Table 2).
(§6) Each operation is performed under sterile conditions. Each working standard solution (10*the final active ingredient concentration) is distributed in tubes (1 ml, for a final volume of 10 ml after addition of 9 ml of inoculum). One tube without active ingredient is used as growth control (Concentration=0).
(§7) Bacterial isolates are sub-cultured from one cryobead on Columbia agar supplemented with 5% of blood. Pure cultures are incubated during 18-24 hours at 37° C. Three to five isolated colonies of similar appearance are selected from a previous culture and transferred into tubes containing 9 ml of Mueller-Hinton II Broth. The broth is incubated during 12-18 hours at 37° C. 0.5 to 1 ml of this broth is inoculated to another Mueller-Hinton II Broth 9 ml tube which is incubated during 3 to 4 hours at 37° C. to reach the exponential growth phase. The bacterial inoculum grown exponential phase is suspended to an optical density of McFarland standard scale 0.5 equivalent to a bacterial density of 10^8 CFU/ml and then adjusted to a concentration of about 5.10^5 CFU/ml as indicated by the guideline CLSI M26-A and to a second inoculum tested: 10^6 CFU/ml.
(§8) 9 ml of bacterial inoculum grown to exponential phase is added to 1 ml of active ingredient (or Mueller Hinton II Broth for the growth control). Tubes are incubated at 35° C. during 24 hours.
(§9) At times 0, 2, 4, 6 and 24 hours, 100 μl of broth of each tube is sampled and diluted in microplates:
(§10) Each well is re-cultured by streaking 10 μl on Columbia agar supplemented with 5% of blood. Plates are incubated at 37° C. during 18-24 hours incubation. Thus, residual bacterial concentrations are determined (CFU/ml). Results are expressed in log10 values of CFU/ml over-time in broth. Due to the procedure used, the minimal bacterial concentration that can be assessed is 10^2 CFU/ml.

MRSP 16127 = experiment: Time-killing curve, inoculum 10^6 CFU/ml (MIC 0.25 μg/ml); assay type: cell-based, Staphylococcus pseudintermedius
Method: as §2, §3, §4, §5, §6, §7, §8, §9, §10

[3] = test system: Methicillin-Resistant Staphylococcus aureus (MRSA) 16116, 16110; experiment: Oxyclo MIC of MRSA strains; assay type: cell-based
[4] = test system: Methicillin-Resistant Staphylococcus pseudintermedius (MRSP) 16125, 16127; experiment: Oxyclo MIC of MRSP strains; assay type: cell-based
[5] = test system: Methicillin-Resistant Staphylococcus aureus (MRSA); experiment: Time-killing curves, conclusion over strains and inocula; assay type: cell-based; conditions: two inocula, two strains
Description: as §2, §3, §4

[6] = test system: Methicillin-Resistant Staphylococcus pseudintermedius (MRSP); experiment: as above; assay type: cell-based; conditions: two inocula, two strains
Description: as §2, §3, §4

Compound: O=C(Nc1cc(Cl)cc(Cl)c1O)c1c(O)c(Cl)cc(Cl)c1Cl [Oxyclozanide]
- MIC ([1]; Staphylococcus aureus, no 16302, read-out: MIC): 0.5 µg/mL
- MIC ([1]; no 16315): 0.5 µg/mL
- MIC ([2]; Staphylococcus pseudintermedius, no 15401, read-out: MIC): 0.125 µg/mL
- MIC ([2]; no 15410): 0.125 µg/mL
- Counting results (MRSA 16110; 1 MIC, 0 h): 2.000E+06 CFU/ml
- Counting results (MRSA 16110; 1 MIC, 2 h): 8.300E+04 CFU/ml
- Counting results (MRSA 16110; 1 MIC, 4 h): 3.400E+04 CFU/ml
- Counting results (MRSA 16110; 1 MIC, 6 h): 3.500E+03 CFU/ml
- Counting results (MRSA 16110; 1 MIC, 24 h): 7.900E+06 CFU/ml
- Counting results (MRSA 16110; 2 MIC, 0 h): 2.000E+06 CFU/ml
- Counting results (MRSA 16110; 2 MIC, 2 h): 4.000E+02 CFU/ml
- Counting results (MRSA 16110; 2 MIC, 4 h): 2.000E+02 CFU/ml
- Counting results (MRSA 16110; 2 MIC, 6 h): 1.000E+02 CFU/ml
- Counting results (MRSA 16110; 2 MIC, 24 h): 1.000E+02 CFU/ml
- Counting results (MRSA 16110; 4 MIC, 0 h): 2.000E+06 CFU/ml
- Counting results (MRSA 16110; 4 MIC, 2 h): 1.000E+02 CFU/ml
- Counting results (MRSA 16110; 4 MIC, 4 h): 1.000E+02 CFU/ml
- Counting results (MRSA 16110; 4 MIC, 6 h): 1.000E+02 CFU/ml
- Counting results (MRSA 16110; 4 MIC, 24 h): 1.000E+02 CFU/ml
- Counting results (MRSA 16110; 8 MIC, 0 h): 2.000E+06 CFU/ml
- Counting results (MRSA 16110; 8 MIC, 2 h): 1.000E+02 CFU/ml
- Counting results (MRSA 16110; 8 MIC, 4 h): 1.000E+02 CFU/ml
- Counting results (MRSA 16110; 8 MIC, 6 h): 1.000E+02 CFU/ml
- Counting results (MRSA 16110; 8 MIC, 24 h): 1.000E+02 CFU/ml
- Counting results (MRSA 16110; 16 MIC, 0 h): 2.000E+06 CFU/ml
- Counting results (MRSA 16110; 16 MIC, 2 h): 2.000E+02 CFU/ml
- Counting results (MRSA 16110; 16 MIC, 4 h): 1.000E+02 CFU/ml
- Counting results (MRSA 16110; 16 MIC, 6 h): 1.000E+02 CFU/ml
- Counting results (MRSA 16110; 16 MIC, 24 h): 1.000E+02 CFU/ml
- Time to obtain bactericidal effect at 4 MIC (MRSA 16110; 16110/10^6 CFU/ml, >=3 log10 decrease in CFU): 2 h
- Counting results (MRSA 16110; ¼ MIC, 0 h): 2.000E+06 CFU/ml
- Counting results (MRSA 16110; ¼ MIC, 2 h): 8.000E+06 CFU/ml
- Counting results (MRSA 16110; ¼ MIC, 4 h): 4.000E+07 CFU/ml
- Counting results (MRSA 16110; ¼ MIC, 6 h): 2.400E+07 CFU/ml
- Counting results (MRSA 16110; ¼ MIC, 24 h): 4.100E+07 CFU/ml
- Counting results (MRSA 16110; ½ MIC, 0 h): 2.000E+06 CFU/ml
- Counting results (MRSA 16110; ½ MIC, 2 h): 6.900E+05 CFU/ml
- Counting results (MRSA 16110; ½ MIC, 4 h): 4.300E+06 CFU/ml
- Counting results (MRSA 16110; ½ MIC, 6 h): 4.800E+07 CFU/ml
- Counting results (MRSA 16110; ½ MIC, 24 h): 3.700E+07 CFU/ml
- Counting results (MRSP 16127; 1 MIC, 0 h): 9.000E+05 CFU/ml
- Counting results (MRSP 16127; 1 MIC, 2 h): 4.100E+05 CFU/ml
- Counting results (MRSP 16127; 1 MIC, 4 h): 4.000E+06 CFU/ml
- Counting results (MRSP 16127; 1 MIC, 6 h): 7.500E+06 CFU/ml
- Counting results (MRSP 16127; 1 MIC, 24 h): 9.000E+07 CFU/ml
- Counting results (MRSP 16127; 2 MIC, 0 h): 9.000E+05 CFU/ml
- Counting results (MRSP 16127; 2 MIC, 2 h): 4.100E+05 CFU/ml
- Counting results (MRSP 16127; 2 MIC, 4 h): 5.400E+05 CFU/ml
- Counting results (MRSP 16127; 2 MIC, 6 h): 2.500E+06 CFU/ml
- Counting results (MRSP 16127; 2 MIC, 24 h): 7.600E+06 CFU/ml
- Counting results (MRSP 16127; 4 MIC, 0 h): 9.000E+05 CFU/ml
- Counting results (MRSP 16127; 4 MIC, 2 h): 1.700E+04 CFU/ml
- Counting results (MRSP 16127; 4 MIC, 4 h): 1.500E+03 CFU/ml
- Counting results (MRSP 16127; 4 MIC, 6 h): 3.000E+02 CFU/ml
- Counting results (MRSP 16127; 4 MIC, 24 h): 8.000E+02 CFU/ml
- Counting results (MRSP 16127; 8 MIC, 0 h): 9.000E+05 CFU/ml
- Counting results (MRSP 16127; 8 MIC, 2 h): 5.200E+03 CFU/ml
- Counting results (MRSP 16127; 8 MIC, 4 h): 1.000E+02 CFU/ml
- Counting results (MRSP 16127; 8 MIC, 6 h): 1.000E+02 CFU/ml
- Counting results (MRSP 16127; 8 MIC, 24 h): 1.000E+02 CFU/ml
- Counting results (MRSP 16127; 16 MIC, 0 h): 9.000E+05 CFU/ml
- Counting results (MRSP 16127; 16 MIC, 2 h): 1.200E+03 CFU/ml
- Counting results (MRSP 16127; 16 MIC, 4 h): 1.000E+02 CFU/ml
- Counting results (MRSP 16127; 16 MIC, 6 h): 1.000E+02 CFU/ml
- Counting results (MRSP 16127; 16 MIC, 24 h): 1.000E+02 CFU/ml
- Time to obtain bactericidal effect at 4 MIC (MRSP 16127; 16127/10^6 CFU/ml, >=3 log10 decrease in CFU): 4 to 6 h
- Counting results (MRSP 16127; ¼ MIC, 0 h): 9.000E+05 CFU/ml
- Counting results (MRSP 16127; ¼ MIC, 2 h): 5.100E+05 CFU/ml
- Counting results (MRSP 16127; ¼ MIC, 4 h): 4.200E+06 CFU/ml
- Counting results (MRSP 16127; ¼ MIC, 6 h): 3.000E+07 CFU/ml
- Counting results (MRSP 16127; ¼ MIC, 24 h): 4.900E+10 CFU/ml
- Counting results (MRSP 16127; ½ MIC, 0 h): 9.000E+05 CFU/ml
- Counting results (MRSP 16127; ½ MIC, 2 h): 4.300E+05 CFU/ml
- Counting results (MRSP 16127; ½ MIC, 4 h): 3.700E+06 CFU/ml
- Counting results (MRSP 16127; ½ MIC, 6 h): 2.100E+07 CFU/ml
- Counting results (MRSP 16127; ½ MIC, 24 h): 3.400E+09 CFU/ml
- MIC ([3]; MRSA 16110): 1 µg/mL
- MIC ([3]; MRSA 16116): 0.5 µg/mL
- MIC ([4]; MRSP 16125): 0.5 µg/mL
- MIC ([4]; MRSP 16127): 0.25 µg/mL
- Concentrations with concentration-dependent bactericidal effect [5]: >= 2 MIC
- Concentrations with concentration-dependent bactericidal effect [6]: >= 2 MIC
